From PMC7087588 (Monatshefte Fur Chemie, 2019)
Entries after “also recorded” stand apart in the source; their conditions may differ.

system: Punta Toro virus, yellow fever virus or Sindbis virus; format: cell-based

Question: For `CC1SC2(CCCCC2)N(NC(=O)c2[nH]c3ccc(Cl)cc3c2-c2ccccc2)C1=O` (stereo not drawn) [Compound 5b, 5-Chloro-N-(2-methyl-3-oxo-1-thia-4-azaspiro[4.5]decan-4-yl)-3-phenyl-1H-indole-2-carboxamide], which “antiviral activity (in words)” value is on record?
Answer: Its value is “moderately active; also recorded: inhibitory effect”.

Question: With `CC1CCCC2(C1)SCC(=O)N2NC(=O)c1[nH]c2ccc(Cl)cc2c1-c1ccccc1` (stereo not drawn) [Compound 4c, 5-Chloro-N-(7-methyl-3-oxo-1-thia-4-azaspiro[4.5]decan-4-yl)-3-phenyl-1H-indole-2-carboxamide] as the compound, how does the “antiviral activity (in words)” value read?
Answer: Its value is “moderately active; also recorded: inhibitory effect”.

Question: With `O=C(NN1C(=O)CSC12CCCCC2)c1[nH]c2ccc(Cl)cc2c1-c1ccccc1` [Compound 4b, 5-Chloro-N-(3-oxo-1-thia-4-azaspiro[4.5]decan-4-yl)-3-phenyl-1H-indole-2-carboxamide] as the compound, how does the “antiviral activity (in words)” value read?
Answer: The value was “moderately active; also recorded: inhibitory effect”.

Question: With `CC1CCC2(CC1)SC(C)C(=O)N2NC(=O)c1[nH]c2ccc(Cl)cc2c1-c1ccccc1` (stereo not drawn) [Compound 5d, 5-Chloro-N-(2,8-dimethyl-3-oxo-1-thia-4-azaspiro[4.5]decan-4-yl)-3-phenyl-1H-indole-2-carboxamide] as the compound, how does the “antiviral activity (in words)” value read?
Answer: Its value is “moderately active; also recorded: inhibitory effect”.

system: variety of DNA and RNA viruses; format: cell-based

Question: With `O=C(NN1C(=O)CSC12CCCC2)c1[nH]c2ccc(Cl)cc2c1-c1ccccc1` [Compound 4a, 5-Chloro-N-(3-oxo-1-thia-4-azaspiro[4.4]nonan-4-yl)-3-phenyl-1H-indole-2-carboxamide] as the compound, how does the “antiviral activity (in words)” value read?
Answer: Its value is “no antiviral activity”.

Question: How did the “antiviral activity (in words)” value turn out when `CC1SC2(CCCC2)N(NC(=O)c2[nH]c3ccc(Cl)cc3c2-c2ccccc2)C1=O` (stereo not drawn) [Compound 5a, 5-Chloro-N-(2-methyl-3-oxo-1-thia-4-azaspiro[4.4]nonan-4-yl)-3-phenyl-1H-indole-2-carboxamide] was run?
Answer: Its value is “no antiviral activity”.
